In patent US9809623B2, “α4β7 peptide monomer and dimer antagonists” (Protagonist Therapeutics, Inc., priority 2014, dated 2017):
Numbered stars: 1 amine (or outer) side, 2 acyl side, 3 side chain; on linkers, the order of the positions; unused ones are H or OH. Bridge positions count the residues as written; N and C are the ends. Square brackets hold non-standard residues; d marks the D form. Peptide text beside a SMILES is read from it. I, II: the chains in the order shown. Phe(4-tBu) = CC(C)(C)c1ccc(C[C@H](N)C(=O)O)cc1; Diglycolyl = O=C(COCC(=O)[*:2])[*:1]; NMeR = CN[C@@H](CCCNC(=N)N)C(=O)O; β3hE = N[C@@H](CCC(=O)O)CC(=O)O; Pen = CC(C)(S)[C@H](N)C(=O)O

Key:
Intestinal Wash Assay = assay type: in vitro ADME; set-up: dose or concentration left out as unconfirmed; conditions: rat, rat intestinal wash fluid (small intestine); Table 4-C, t1/2
Method: Intestinal wash assay solution was prepared from rats fasted for at least 6 hours prior. The animals were euthanized and a midline incision was made from the point of the jaw to the pubis. The abdomen and chest were opened by making 2 incisions through the anterior chest wall on either side. Hemostats were used to clamp off both ends of the animal's stomach—where the esophagus meets the stomach and where the stomach meets the duodenum. A hemostat was also used to clamp 2-3 cm down the intestine from where the stomach meets the duodenum.
Intestinal wash assay solution was prepared by separating 20 cm of the small intestine from the body. Once separated 20 cm, the end was clamped with a hemostat and the section cut from the body, leaving the hemostats in place on the removed section. 1 mL of chilled saline was drawn up with a 1 mL syringe. One end of the intestine was held up and the clamp removed. Approximately 2-2.5 cm of the gavage needle was inserted into the intestine, and the saline was slowly injected. The fluid was massaged down the length of the intestine using gloved fingers. The gavage needle was removed and the clamp was replaced on the end of the intestine. The intestine was sat straight and a q-tip was run firmly up and down the length of the outside of the intestine approximately 3-6 times to mix the enzymes with the saline. One end of the intestine was held up and some of the fluid was carefully moved at the top down. The clamp was removed and that end of the intestine was set into a small weigh boat on ice. The other end of the intestine was carefully picked up and held vertically. Gloved fingers were gently run down it to squeeze the fluid into the container. The previous steps saline injection and fluid procurement steps were repeated twice using only 0.5 mL of chilled saline. The sample was pipetted from the weigh boat into a centrifuge tube and placed on ice. All intestinal wash samples were spun down in a cold centrifuge at 12,000×g for 10 minutes. The supernatant from the top of each centrifuged sample was pipetted into cryotubes, and kept on ice until use.
Intestinal wash assays were performed using intestinal wash assay solution prepared as described above. A sufficient amount of rat intestinal wash was thawed. For each sample, 200 uL of rat intestinal wash fluid was pipetted into 1.5 mL Eppendorf tubes (number of tubes for experiment=number of test peptides×N). The tubes were pre-incubated for about 10 minutes in a water bath at 37° C.
Peptide working solutions ([…]) were prepared by combining 2 μl of 10 mM DMSO stock with 128 μl 100 mM Tris pH 7.5.
Peptide quench solvent (50% ACN-50% MeOH-5% Formic Acid)+IS (5 ug/ml; 1 ul of 10 mg/mL IS per 2 mL quench solvent) was prepare and a quench plate prepared and placed on ice. 200 ul of quench solution was added to each well of the quench plate for T=0, 10, 20, 30, 60 and 180 min collection.
For each test sample and a positive control, 30 ul of peptide working solution was added to a tube of intestinal wash fluid. The tube was gently vortexed and 30 ul was immediately removed and quenched in T=0 well of quench plate (pipetted directly into the quench solution). This well was covered tightly to prevent evaporation. 30 ul aliquots were removed at T=10 min, T=20 min, T=30 min, T=60 min, and T=180 min, and quenched. When all time points were collected, the quench plate was centrifuged at 10,000 rpm for 10 minutes. 150 uL of each supernatant was transferred to a polypropylene 96-well collection plate. 300 ul Mobile Phase A was added to each collection, and LC/MS/MS analysis was performed to determine the amount or concentration of peptide remaining in each test sample and positive control.

[1] = Cysteine/Cystine Redox Stability Assay; assay type: physicochemical; conditions: Table 4-C; ORP where half of the oxidized peptide remains
Method: Peptides were diluted to 90 μM by adding 4.545 μl of a 10 mM peptide DMSO stock to 495.45 μl of 100 mM Tris-Cl, pH 7.5. Aliquots of […] were transferred to 8 wells down a column of a 96 well plate. 20 μl of 2.5 mM Cystine in 100 mM Tris-Cl, pH 7.5 was added to each well. Cysteine stock solutions in 100 mM Tris-Cl, pH 7.5 were prepared fresh at the following concentrations: 400 mM, 200 mM, 80 mM, 44 mM, 22 mM, 11 mM, 5.5 mM and blank. At time 0, 25 μl of each cysteine stock solution was added to the 55 μl of cystine/peptide solution, and the mixture was incubated at room temperature for 40 min. The samples were quenched by adding 20 μl of 5M acetic acid and analyzed by reverse phase HPLC. The fraction of oxidized peptide was calculated and plotted against the calculated oxidation reduction potential (ORP) as defined by the Nernst equation. The ORP where half of the oxidized peptide remains is shown below.

[2] = tested on: BALB/c mice, chronic DSS colitis; test: 15 day chronic DSS colitis mouse model; assay type: in vivo; conditions: 10 mg/kg PO BID plus 0.2 mg/ml in drinking water
Method: To further evaluate the efficacy of peptides of the present invention in treating colitis, a chronic DSS colitis mouse model was used to examine the effects of orally administered Peptide X or another peptide, Peptide XX, as compared to vehicle control or the antibodies, MECA 367 and DATK32. Peptide XX is a dimer having the following structure, where DIG links the two peptide monomers by their C-termini:
In this 15 day chronic DSS colitis study, BALB/c mice were treated continuously with 2.5% DSS. Peptide X dosing was 55 mg/kg/day, 17 mg/kg/day or 6 mg/kg/day in drinking water. Peptide XX dosing was 10 mg/kg PO BID plus 0.2 mg/ml in drinking water. The anti-α4β7 Ab DATK32 was dosed 25 mg/kg IP every 3 days, and the anti-MAdCAM Ab MECA 367 was dosed 8 mg/kg IP daily. After takedown, distal colon sections were fixed for histopathology and processed for β7+ cell IH staining using the anti-β7 antibody M293.

Row | SMILES | half-life (Intestinal Wash Assay) [h] | Cys/CySS (mV) [1] [mV] | colon macroscopic and histopathology scores [2] | infiltration of B7+ cells into the lamina propria of the distal colon [2]
1 | CC(=O)N[C@@H]1C(=O)N[C@@H](CCCNC(=N)N)C(=O)N[C@@H](CO)C(=O)N[C@@H](CC(=O)O)C(=O)N[C@@H]([C@@H](C)O)C(=O)N[C@@H](CC(C)C)C(=O)N[C@H](C(=O)N[C@H](CCCCNC(=O)COCC(=O)NCCCC[C@@H](NC(=O)[C@@H]2CSSC(C)(C)[C@H](NC(C)=O)C(=O)N[C@@H](CCCNC(=N)N)C(=O)N[C@@H](CO)C(=O)N[C@@H](CC(=O)O)C(=O)N[C@@H]([C@@H](C)O)C(=O)N[C@@H](CC(C)C)C(=O)N2)C(N)=O)C(N)=O)CSSC1(C)C [compound 207, (Ac-Pen-R-S-D-T-L-C-k-NH2)2-DIG] (I: Ac-[Pen]RSDTLC[dK]-NH2 / II: Ac-[Pen]RSDTLC[dK]-NH2; disulfide I:1-I:7, II:1-II:7 (inferred); linker I:8-II:8 via Diglycolyl (inferred)) | < 0.167 | −173 |  | 
2 | CC(=O)N[C@@H]1C(=O)N(C)[C@@H](CCCNC(=N)N)C(=O)N[C@@H](CO)C(=O)N[C@@H](CC(=O)O)C(=O)N[C@@H]([C@@H](C)O)C(=O)N[C@@H](CC(C)C)C(=O)N[C@H](C(=O)N[C@@H](Cc2ccc(C(C)(C)C)cc2)C(=O)N[C@@H](CCC(=O)O)CC(=O)N[C@H](CCCCNC(=O)COCC(=O)NCCCC[C@@H](NC(=O)C[C@H](CCC(=O)O)NC(=O)[C@H](Cc2ccc(C(C)(C)C)cc2)NC(=O)[C@H]2NC(=O)[C@H](CC(C)C)NC(=O)[C@H]([C@@H](C)O)NC(=O)[C@H](CC(=O)O)NC(=O)[C@H](CO)NC(=O)[C@H](CCCNC(=N)N)N(C)C(=O)[C@@H](NC(C)=O)C(C)(C)SSC2(C)C)C(N)=O)C(N)=O)C(C)(C)SSC1(C)C [compound 218, [Ac-Pen-(N-Me-Arg)-Ser-Asp-Thr-Leu-Pen-Phe(4-tBu)-(β-homoGlu)-(D-Lys)-NH2]2-DIG] (I: Ac-[Pen][NMeR]SDTL[Pen][Phe(4-tBu)][β3hE][dK]-NH2 / II: Ac-[Pen][NMeR]SDTL[Pen][Phe(4-tBu)][β3hE][dK]-NH2; disulfide I:1-I:7, II:1-II:7; linker I:10-II:10 via Diglycolyl) | > 6 | <−300 |  | 
3 | CC(=O)N[C@@H]1C(=O)N(C)[C@@H](CCCNC(=N)N)C(=O)N[C@@H](CO)C(=O)N[C@@H](CC(=O)O)C(=O)N[C@@H]([C@@H](C)O)C(=O)N[C@@H](CC(C)C)C(=O)N[C@H](C(=O)N[C@@H](Cc2c[nH]c3ccccc23)C(=O)N[C@@H](CCC(=O)O)CC(=O)N[C@H](CCCCNC(=O)COCC(=O)NCCCC[C@@H](NC(=O)C[C@H](CCC(=O)O)NC(=O)[C@H](Cc2c[nH]c3ccccc23)NC(=O)[C@H]2NC(=O)[C@H](CC(C)C)NC(=O)[C@H]([C@@H](C)O)NC(=O)[C@H](CC(=O)O)NC(=O)[C@H](CO)NC(=O)[C@H](CCCNC(=N)N)N(C)C(=O)[C@@H](NC(C)=O)C(C)(C)SSC2(C)C)C(N)=O)C(N)=O)C(C)(C)SSC1(C)C [compound 213, [Ac-Pen-(N-Me-Arg)-Ser-Asp-Thr-Leu-Pen-Trp-(β-homoGlu)-(D-Lys)-NH2]2-DIG] (I: Ac-[Pen][NMeR]SDTL[Pen]W[β3hE][dK]-NH2 / II: Ac-[Pen][NMeR]SDTL[Pen]W[β3hE][dK]-NH2; disulfide I:1-I:7, II:1-II:7; linker I:10-II:10 via Diglycolyl) |  |  | reduced colon macroscopic and histopathology scores comparable to the antibodies | reduced infiltration
4 | CC(=O)N[C@@H]1C(=O)N(C)[C@@H](CCCNC(=N)N)C(=O)N[C@@H](CO)C(=O)N[C@@H](CC(=O)O)C(=O)N[C@@H]([C@@H](C)O)C(=O)N[C@@H](CC(C)C)C(=O)N[C@H](C(=O)N[C@@H](Cc2c[nH]c3ccccc23)C(=O)N[C@H](CCCCNC(=O)COCC(=O)NCCCC[C@@H](NC(=O)[C@H](Cc2c[nH]c3ccccc23)NC(=O)[C@H]2NC(=O)[C@H](CC(C)C)NC(=O)[C@H]([C@@H](C)O)NC(=O)[C@H](CC(=O)O)NC(=O)[C@H](CO)NC(=O)[C@H](CCCNC(=N)N)N(C)C(=O)[C@@H](NC(C)=O)C(C)(C)SSC2(C)C)C(N)=O)C(N)=O)C(C)(C)SSC1(C)C [compound 209, (Ac-Pen-N-Me-R-S-D-T-L-Pen-W-k-NH2)2-DIG] (I: Ac-[Pen][NMeR]SDTL[Pen]W[dK]-NH2 / II: Ac-[Pen][NMeR]SDTL[Pen]W[dK]-NH2; disulfide I:1-I:7, II:1-II:7 (inferred); linker I:9-II:9 via Diglycolyl (inferred)) | > 3 | <−300 |  | 
5 | CC(=O)N[C@@H]1C(=O)N(C)[C@@H](CCCNC(=N)N)C(=O)N[C@@H](CO)C(=O)N[C@@H](CC(=O)O)C(=O)N[C@@H]([C@@H](C)O)C(=O)N[C@@H](CC(C)C)C(=O)N[C@H](C(=O)N[C@@H](Cc2c[nH]c3ccccc23)C(=O)N[C@@H](CCC(=O)O)C(=O)N[C@H](CCCCNC(=O)COCC(=O)NCCCC[C@@H](NC(=O)[C@H](CCC(=O)O)NC(=O)[C@H](Cc2c[nH]c3ccccc23)NC(=O)[C@H]2NC(=O)[C@H](CC(C)C)NC(=O)[C@H]([C@@H](C)O)NC(=O)[C@H](CC(=O)O)NC(=O)[C@H](CO)NC(=O)[C@H](CCCNC(=N)N)N(C)C(=O)[C@@H](NC(C)=O)C(C)(C)SSC2(C)C)C(N)=O)C(N)=O)C(C)(C)SSC1(C)C [compound 217, (Ac-Pen-N-Me-R-S-D-T-L-Pen-W-E-k-NH2)2-DIG] (I: Ac-[Pen][NMeR]SDTL[Pen]WE[dK]-NH2 / II: Ac-[Pen][NMeR]SDTL[Pen]WE[dK]-NH2; disulfide I:1-I:7, II:1-II:7 (inferred); linker I:10-II:10 via Diglycolyl (inferred)) | > 3 | <−300 |  | 
6 | CC(=O)N[C@H]1CSSC(C)(C)[C@@H](C(=O)N[C@@H](Cc2c[nH]c3ccccc23)C(=O)N[C@H](CCCCNC(=O)COCC(=O)NCCCC[C@@H](NC(=O)[C@H](Cc2c[nH]c3ccccc23)NC(=O)[C@H]2NC(=O)[C@H](CC(C)C)NC(=O)[C@H]([C@@H](C)O)NC(=O)[C@H](CC(=O)O)NC(=O)[C@H](CO)NC(=O)[C@H](CCCNC(=N)N)N(C)C(=O)[C@@H](NC(C)=O)CSSC2(C)C)C(N)=O)C(N)=O)NC(=O)[C@H](CC(C)C)NC(=O)[C@H]([C@@H](C)O)NC(=O)[C@H](CC(=O)O)NC(=O)[C@H](CO)NC(=O)[C@H](CCCNC(=N)N)N(C)C1=O [compound 204, (Ac-C-N-Me-R-S-D-T-L-Pen-W-k-NH2)2-DIG] (I: Ac-C[NMeR]SDTL[Pen]W[dK]-NH2 / II: Ac-C[NMeR]SDTL[Pen]W[dK]-NH2; disulfide I:1-I:7, II:1-II:7 (inferred); linker I:9-II:9 via Diglycolyl (inferred)) | > 3 | −204 |  | 
